In brackets after ≈: the same amount, converted by molar mass. Activity calls are given as the source filed them. No cut-off for these calls is given here.
What was measured:
[1] = Cytotoxicity against human MCF7 cells assessed as reduction in cell viability after 48 hrs by MTT assay; assay type: toxicity, cell-based
[2] = tested on: Caenorhabditis elegans; assay: Anthelmintic activity against Caenorhabditis elegans N2 Bristol assessed as lethality; assay type: functional
[3] = tested on: Caenorhabditis elegans; assay: Anthelmintic activity against Caenorhabditis elegans N2 Bristol assessed as mortality at 10 mM relative to control; assay type: functional
[4] = tested on: Caenorhabditis elegans; assay: Anthelmintic activity against Caenorhabditis elegans N2 Bristol assessed as lethality on young adult worms at 10 mM incubated for 48 hrs; assay type: functional, organism-based
[5] = tested on: Trypanosoma cruzi; assay: Antiprotozoal activity against Trypanosoma cruzi Tulahuen C4 amastigotes measured after 96 hrs by microplate reader analysis; assay type: functional, organism-based; details: Tulahuen C4, 96 h
[6] = tested on: Caenorhabditis elegans; assay: Anthelmintic activity against Caenorhabditis elegans N2 Bristol assessed as mortality at 40 mM relative to control
[7] = tested on: Trypanosoma brucei; assay: Antiprotozoal activity against bloodstream form Trypanosoma brucei STIB 900 trypomastigotes […] by microplate reader analysis; assay type: functional, organism-based
[8] = tested on: Leishmania donovani; assay: Antiprotozoal activity against Leishmania donovani MHOM-ET-67/L82 amastigotes incubated for 72 hrs by microplate reader analysis; assay type: functional, organism-based; details: MHOM-ET-67/L82, 72 h
[9] = tested on: Plasmodium falciparum; assay: Antiprotozoal activity against Plasmodium falciparum NF54 intraerythrocytic forms incubated for 48 hrs by 3H-hypoxanthine incorporation assay; assay type: functional, organism-based
[10] = Cytotoxicity against rat L6 cells incubated for 72 hrs by Resazurin-dye based assay; assay type: toxicity, cell-based

With `COC(=O)C1=C2Nc3c(OC)cccc3[C@@]23CCN2C[C@@H](C(C)=O)[C@@H]1C[C@H]23` as the compound, how does the IC50 at 48 h [1] read?
The IC50 at 48 h was greater than 100 µM.

With `COC(=O)/C1=C/OC2=Nc3c(OC)cccc3[C@@]23CCN2C[C@@H]([C@H](C)O)[C@@H]1CC23` as the compound, how does the IC50 at 48 h [1] read?
Its IC50 at 48 h is greater than 100 µM.

What about the LC50 [2] of the same compound?
Its LC50 is 400 µM.

And the mortality at 10000 µM [3]?
Its mortality at 10000 µM is 100%.

Which IC50 at 48 h [1] does the source give for `C=C[C@@]12CN3CC[C@]1(O)[C@@](C(=O)OC)(CO2)c1[nH]c2ccccc2c1C3` here?
The IC50 at 48 h was 26 µM.

And the Activity [4]?
The Activity was “inactive”.

With `O=C(Cn1ccnc1[N+](=O)[O-])NCc1ccccc1` [BENZNIDAZOLE] as the compound, how does the IC50 [5] read?
The IC50 was 0.69 µg/mL (≈ 2.65 µM).

Which IC50 at 48 h [1] does the source give for `COC(=O)[C@@]1(c2cc3ccccc3[nH]2)COCC=C2CN(C)CC[C@@H]21` [6,7-SECO-ANGUSTILOBINE B] here?
Its IC50 at 48 h is greater than 100 µM.

With `C/C=C1/CN2CC[C@@]34C(=Nc5c(OC)cccc53)O/C=C(/C(=O)OC)[C@H]1CC24` as the compound, how does the IC50 at 48 h [1] read?
The IC50 at 48 h was greater than 100 µM.

And the Activity [4]?
The Activity was “inactive”.

For `COC(=O)[C@@]1(c2cc3ccccc3[nH]2)COC[C@H]2O[C@]23CN(C)CC[C@@H]31`, which IC50 at 48 h [1] is on record?
The IC50 at 48 h was greater than 100 µM.

Which mortality at 40000 µM [6] does the source give for `c1ccc([C@H]2CN3CCSC3=N2)cc1` [LEVAMISOLE] here?
Its mortality at 40000 µM is 71%.

With `C=CC12OC[C@@]3(C(=O)OC)c4[nH]c5ccccc5c4C1NCCC23O` as the compound, how does the IC50 [7] read?
Its IC50 is 20 µg/mL (≈ 58.8 µM).

What about the IC50 [5] of the same compound?
The IC50 was greater than 100 µg/mL.

And the IC50 [8]?
Its IC50 is 75 µg/mL (≈ 220 µM).

And the IC50 [9]?
Its IC50 is 2.4 µg/mL (≈ 7.05 µM).

What about the IC50 at 72 h [10] of the same compound?
The IC50 at 72 h was 50 µg/mL (≈ 147 µM).

And the IC50 at 48 h [1]?
The IC50 at 48 h was greater than 100 µM.

For `COC(=O)/C1=C/OC2=Nc3c(OC)cccc3[C@@]23CCN2C[C@@H](C(C)=O)[C@@H]1CC23`, which IC50 at 48 h [1] is on record?
The IC50 at 48 h was greater than 100 µM.

With `CCCCCCCCCCCCCCCCOP(=O)([O-])OCC[N+](C)(C)C` [MILTEFOSINE] as the compound, how does the IC50 [8] read?
Its IC50 is 0.26 µg/mL (≈ 0.638 µM).

What does the source list for `COC(=O)C1=C2Nc3c(OC)cccc3[C@@]23CCN2C[C@@H]([C@H](C)O)[C@@H]1C[C@H]23`?
IC50 at 48 h [1]: > 100 µM; Activity [4]: inactive

Reference: ChEMBL document CHEMBL5344423, “Alstoboonine, an Ulean-Type Indole Alkaloid from Alstonia boonei Leaves” (J Nat Prod, 2024)
